The text below walks through data of patent publication US8492310B2, “Herbicidal compositions containing benzoylpyrazole compounds” (priority 2008, dated 2013).

Holding throughout (type): in vivo
For assay [1], the system named is crabgrass (Digitaria sanguinalis L.). In words: Foliar treatment pot test, visual growth inhibition rate, crabgrass (DS). The settings on record: Digitaria sanguinalis, foliar. In a few lines: (§1)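 Seeds were sown in upland soil pots, and plants were sprayed on the foliage at a predetermined leaf stage with herbicidal compositions diluted in water at 300 L/ha. Growth inhibition was rated visually. Expected combination activity was calculated by Colby's formula to assess synergy.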

In assay [2] the test system is giant foxtail (Setaria faberi Herrm.). In words: Foliar treatment pot test, visual growth inhibition rate, giant foxtail (SF). The settings on record: 336 h, read-out: Growth inhibition rate (%) of SF Measured value. From the text:
(§2) When the herbicidal activity in a case where two active ingredients are combined, is larger than the simple sum of the respective herbicidal activities of the two active ingredients (the expected activity), it is called a synergistic effect. The activity expected by the combination of two active ingredients can be calculated as follows (Colby S. R., “Weed”, vol. 15, p. 20-22, 1967). E=α+β−(α×β÷100) where
(§3) Upland field soil was put into a 1/1,000,000 hectare pot, and seeds of various plants (barnyardgrass (Echinochloa crus-qalli L.), crabgrass (Digitaria sanguinalis L.), giant foxtail (Setaria faberi Herrm.), velvetleaf (Abutilon theophrasti MEDIC.) and prickly sida (Sida spinosa L.)) were sown. When the respective plants reached predetermined leaf stage, herbicidal compositions in predetermined amounts were diluted with water in an amount corresponding to 300 L/ha and applied for foliar treatment by a small sprayer.
(§4) Further, in accordance with the above Colby's formula, the growth inhibition rate (calculated value) was calculated. In Tables, with respect to the compound Q, Compound Nos. in Table 1 are described, and with respect to other herbicidal compounds, common names are described. Further, in Tables, barnyardgrass is represented by “EC”, crabgrass by “DS”, giant foxtail by “SF”, velvetleaf by “AT”, and prickly sida by “SS”.

The test system of assay [3] is velvetleaf (Abutilon theophrasti MEDIC.). In words: Foliar treatment pot test, visual growth inhibition rate, velvetleaf (AT). The procedure, abridged: as §1
For assay [4], the system named is barnyardgrass (Echinochloa crus-qalli L.). In words: Foliar treatment pot test, visual growth inhibition rate, barnyardgrass (EC). The settings on record: 504 h, 4.0-5.0 leaf stage, 21 DAT, read-out: Growth inhibition rate (%) of EC Measured value.
Excerpt: as §2, §3, §4

Read-outs that look alike come from different tables or passages of the source.

With `CCn1ncc(C(=O)c2ccc(S(C)(=O)=O)c(OCCOC)c2C)c1OC(C)OC(=O)OC` (centres unmarked) [NO. 4, 1-(1-ethyl-4-(3-(2-methoxyethoxy)-2-methyl-4-(methylsulfonyl)benzoyl)-1H-pyrazol-5-yloxy)ethyl methyl carbonate], the inhibition at 7 g/ha was 75% in assay [1] (336 h, read-out: Growth inhibition rate (%) of DS Measured value, 5.0-5.5 leaf stage, 14 DAT, 7 g/ha); 80% in assay [1] (552 h, read-out: Growth inhibition rate (%) of DS Measured value, 4.0-5.1 leaf stage, 23 DAT, 7 g/ha); 75% in assay [2]; 70% in assay [3] (Abutilon theophrasti, foliar, 336 h, read-out: Growth inhibition rate (%) of AT Measured value, 3.0-4.0 leaf stage, 14 DAT, 7 g/ha). Besides, the inhibition at 5 g/ha in assay [1] (480 h, read-out: Growth inhibition rate (%) of DS Measured value, 3.6-3.8 leaf stage, 20 DAT, 5 g/ha) came out at 40%; in assay [1] (480 h, read-out: Growth inhibition rate (%) of DS Measured value, 3.7-4.0 leaf stage, 20 DAT, 5 g/ha) it was 93%; in assay [1] (480 h, read-out: Growth inhibition rate (%) of DS Measured value, 4.0-4.2 leaf stage, 20 DAT, 5 g/ha), 40%; in assay [1] (480 h, read-out: Growth inhibition rate (%) of DS Measured value, 4.5-5.2 leaf stage, 20 DAT, 5 g/ha), 53%; in assay [1] (480 h, read-out: Growth inhibition rate (%) of DS Measured value, 5.1-5.2 leaf stage, 20 DAT, 5 g/ha) it was 48%; in assay [1] (504 h, read-out: Growth inhibition rate (%) of DS Measured value, 4.0-5.1 leaf stage, 21 DAT, 5 g/ha) it was 75%. For the same molecule, the inhibition at 5 g/ha was 48% in assay [3] (Abutilon theophrasti, foliar, 480 h, read-out: Growth inhibition rate (%) of AT Measured value, 4.0-4.2 leaf stage, 20 DAT, 5 g/ha); 55% in assay [3] (Abutilon theophrasti, foliar, 480 h, read-out: Growth inhibition rate (%) of AT Measured value, 4.1-4.2 leaf stage, 20 DAT, 5 g/ha); 35% in assay [3] (Abutilon theophrasti, foliar, 504 h, read-out: Growth inhibition rate (%) of AT Measured value, 4.0-4.3 leaf stage, 21 DAT, 5 g/ha); 35% in assay [3] (Abutilon theophrasti, foliar, 504 h, read-out: Growth inhibition rate (%) of AT Measured value, AT 4.0-4.3 leaf stage, 21 DAT, active ingredient 5 g/ha); 40% in assay [3] (Abutilon theophrasti, foliar, 528 h, read-out: Growth inhibition rate (%) of AT Measured value, 4.5-5.0 leaf stage, 22 DAT, 5 g/ha); 75% in assay [3] (Abutilon theophrasti, foliar, 552 h, read-out: Growth inhibition rate (%) of AT Measured value, 3.0-4.2 leaf stage, 23 DAT, 5 g/ha). In addition, the inhibition at 10 g/ha in assay [1] (480 h, read-out: Growth inhibition rate (%) of DS Measured value, 3.6-3.8 leaf stage, 20 DAT, 10 g/ha) turned out to be 50%; in assay [1] (480 h, read-out: Growth inhibition rate (%) of DS Measured value, 4.0-4.2 leaf stage, 20 DAT, 10 g/ha), 50%; in assay [1] (480 h, read-out: Growth inhibition rate (%) of DS Measured value, 4.5-5.2 leaf stage, 20 DAT, 10 g/ha), 89%; in assay [1] (480 h, read-out: Growth inhibition rate (%) of DS Measured value, 5.0-5.2 leaf stage, 20 DAT, 10 g/ha) it was 93%; in assay [1] (480 h, read-out: Growth inhibition rate (%) of DS Measured value, 5.1-5.2 leaf stage, 20 DAT, 10 g/ha), 73%; in assay [1] (552 h, read-out: Growth inhibition rate (%) of DS Measured value, 4.5-5.3 leaf stage, 23 DAT, 10 g/ha), 87%. For the same molecule, the inhibition at 10 g/ha in assay [3] (Abutilon theophrasti, foliar, 480 h, read-out: Growth inhibition rate (%) of AT Measured value, 4.0-4.2 leaf stage, 20 DAT, 10 g/ha) was 73%; in assay [3] (Abutilon theophrasti, foliar, 480 h, read-out: Growth inhibition rate (%) of AT Measured value, 4.1-4.2 leaf stage, 20 DAT, 10 g/ha), 63%; in assay [3] (Abutilon theophrasti, foliar, 480 h, read-out: Growth inhibition rate (%) of AT Measured value, 4.2-4.3 leaf stage, 20 DAT, 10 g/ha), 63%; in assay [3] (Abutilon theophrasti, foliar, 504 h, read-out: Growth inhibition rate (%) of AT Measured value, 4.0-4.3 leaf stage, 21 DAT, 10 g/ha), 60%; in assay [3] (Abutilon theophrasti, foliar, 504 h, read-out: Growth inhibition rate (%) of AT Measured value, AT 4.0-4.3 leaf stage, 21 DAT, active ingredient 10 g/ha), 60%; in assay [3] (Abutilon theophrasti, foliar, 528 h, read-out: Growth inhibition rate (%) of AT Measured value, 4.5-5.0 leaf stage, 22 DAT, 10 g/ha) it was 50%. In addition, the inhibition at 10 g/ha in assay [3] (Abutilon theophrasti, foliar, 552 h, read-out: Growth inhibition rate (%) of AT Measured value, 3.0-4.2 leaf stage, 23 DAT, 10 g/ha) was determined as 90%. Moreover, the inhibition at 20 g/ha was found to be 73% in assay [1] (480 h, read-out: Growth inhibition rate (%) of DS Measured value, 3.6-3.8 leaf stage, 20 DAT, 20 g/ha); 73% in assay [1] (480 h, read-out: Growth inhibition rate (%) of DS Measured value, 4.0-4.2 leaf stage, 20 DAT, 20 g/ha); 98% in assay [1] (480 h, read-out: Growth inhibition rate (%) of DS Measured value, 5.0-5.2 leaf stage, 20 DAT, 20 g/ha); 94% in assay [1] (528 h, read-out: Growth inhibition rate (%) of DS Measured value, 4.8-5.5 leaf stage, 22 DAT, 20 g/ha); 99% in assay [1] (552 h, read-out: Growth inhibition rate (%) of DS Measured value, 4.5-5.3 leaf stage, 23 DAT, 20 g/ha); 70% in assay [3] (Abutilon theophrasti, foliar, 480 h, read-out: Growth inhibition rate (%) of AT Measured value, 4.2-4.3 leaf stage, 20 DAT, 20 g/ha). For the same molecule, the inhibition at 20 g/ha came to 90% in assay [3] (Abutilon theophrasti, foliar, 528 h, read-out: Growth inhibition rate (%) of AT Measured value, 4.5-5.0 leaf stage, 22 DAT, 20 g/ha) and 95% in assay [3] (Abutilon theophrasti, foliar, 552 h, read-out: Growth inhibition rate (%) of AT Measured value, 3.0-4.2 leaf stage, 23 DAT, 20 g/ha). Besides, the “Growth inhibition rate (%) of AT Measured value” in assay [3] (3.0-4.0 leaf stage, 14 DAT, 15 g/ha) worked out at 80%; in assay [3] (4.0-4.2 leaf stage, 20 DAT, 20 g/ha), 98%; in assay [3] (4.2-4.3 leaf stage, 20 DAT, 5 g/ha) it was 58%; in assay [3] (4.2-4.3 leaf stage, 20 DAT, 10 g/ha), 65%.

Regarding `COC(=O)c1sccc1S(=O)(=O)NC(=O)Nc1nc(C)nc(OC)n1` [Thifensulfuron-methyl], the inhibition at 5 g/ha amounted to 0% in assay [4] (5 g/ha) and 0% in assay [2] (4.0-5.0 leaf stage, 14 DAT, 5 g/ha).

Take `CCCCCCCCSC(=O)Oc1cc(Cl)nnc1-c1ccccc1` [Pyridate, pyridate]: the inhibition at 100 g/ha stood at 0% in assay [4] (100 g/ha) and 0% in assay [2] (4.0-5.0 leaf stage, 14 DAT, 100 g/ha). The inhibition at 200 g/ha in assay [1] (528 h, 4.0-5.0 leaf stage, 22 DAT, 200 g/ha, read-out: Growth inhibition rate (%) of DS Measured value) was 0%; in assay [3] (Abutilon theophrasti, foliar, 336 h, 4.1-4.5 leaf stage, 14 DAT, 200 g/ha, read-out: Growth inhibition rate (%) of AT Measured value), 30%.
